The source of these data is patent US20190223483A1, “SENSORY MODIFIER COMPOUNDS” (CARGILL, INCORPORATED, priority 2017, published 2019).

The nature of test [1]: Sweetness intensity (SEV) by trained panel against 1%-14% sucrose standards. In kind it is in vivo. The procedure:
In some aspects, the amount of sensory modifier compound effective to increase sweetness intensity can be determined by panel testing with trained panelists. For example, […] can be determined by the following test: Solutions were prepared by dissolving steviol glycosides and sensory modifier compounds into reverse osmosis water at the indicated concentrations and/or ratios. Solutions were tested by a panel of at least four individuals that are highly-trained in tasting steviol glycoside solutions. The highly-trained panelists were trained against a standard range of 1%, 2%, 3%, 4%, 5%, 6%, 7%, 8%, 9%, 10%, 11%, 12%, 13%, and 14% sucrose solutions corresponding to 1, 2, 3, 4, 5, 6, 7, 8, 9, 10, 11, 12, 13, and 14 SEV. To test each solution, the highly-trained panelists dispensed approximately 2 mL of each solution into their own mouths by transfer pipet, dispersed the solution by moving their tongues, and recorded an SEV value for each solution based on comparison to the 1%, 2%, 3%, 4%, 5%, 6%, 7%, 8%, 9%, 10%, 11%, 12%, 13%, and 14% sucrose solutions. Between tasting solutions, the panelists were able to cleanse their palates with water. […] For sweetness intensity, the panelists focused on, and only recorded, the sweetness intensity in SEV that they tasted while disregarding other attributes of the solution. At the highest concentrations of steviol glycoside and sensory modifier compound, the panelists found other attributes to be highly noticeable, but recorded the isolated sweetness intensity for each solution despite these other attributes. Exemplary tests are described below in Example 1.
All solutions were prepared by dissolving steviol glycosides and sensory modifier compounds into reverse osmosis water at the indicated concentrations and/or ratios.
For sweetness intensity, the solutions were tested by a panel of at least four individuals that are highly-trained in tasting steviol glycoside solutions. The highly-trained panelists were trained against a standard range of 1%, 2%, 3%, 4%, 5%, 6%, 7%, 8%, 9%, 10%, 11%, 12%, 13%, and 14% sucrose solutions corresponding to 1, 2, 3, 4, 5, 6, 7, 8, 9, 10, 11, 12, 13, and 14 SEV. To test each solution, the highly-trained panelists dispensed approximately 2 mL of each solution into their own mouths by transfer pipet, dispersed the solution by moving their tongues, and recorded an SEV value for each solution based on comparison to the 1%, 2%, 3%, 4%, 5%, 6%, 7%, 8%, 9%, 10%, 11%, 12%, 13%, and 14% sucrose solutions. Between tasting solutions, the panelists were able to cleanse their palates with water. […] For this example, the panelists focused on and only recorded the sweetness intensity in SEV that they tasted while disregarding other attributes of the solution. At the highest concentrations of steviol glycoside and sensory modifier compound, the panelists found other attributes to be highly noticeable, but recorded the isolated sweetness intensity for each solution despite these other attributes.

Test [2] is described as follows: Roundtable assessment of off taste (scale 0 to 6). It is filed as in vivo. Details: key to Off taste / off taste score: 0 = none; 1 = trace/faint; 2 = slight; 3 = moderate; 4 = definite; 5 = strong; 6 = extreme. The procedure: For other sweetness attributes, the solutions were tested by a panel of at least four individuals that are highly-trained in tasting steviol glycoside solutions. The highly-trained panelists used a roundtable methodology to assess each sweetness attribute. To test each solution, the highly-trained panelists dispensed approximately 2 mL of each solution into their own mouths by transfer pipet, dispersed the solution by moving their tongues, and recorded a value for the particular sweetness attribute being tested. Between tasting solutions, the panelists were able to cleanse their palates with water. For each sweetness attribute, the panelist agreed on a descriptive scale with relative intensities assigned for each sweetness attribute and then recorded the values for each sweetness attribute against this. For example, this roundtable assessment of sweetness linger assigned a scale of 0 to 6 with a score of 0 indicating no sweetness linger and a score of 6 indicating extreme sweetness linger. Roundtable assessment of sweetness linger assigned a scale of 0 to 6 with a score of 0 indicating no sweetness linger and a score of 6 indicating extreme sweetness linger (0=none, 1=trace, 2=slight, 3=moderate, 4=definite, 5=strong, 6=extreme). Roundtable assessment of rounded assigned a scale of 0 to 3 with a score of 0 indicating spikey and a score of 3 indicating desirable rounded (0=none, 1=mostly spikey, some rounded, 2=mostly rounded, some spikey, 3=rounded). Roundtable assessment of mouthfeel assigned a scale of 0 to 2 with a score of 0 indicating water and a score of 2 indicating syrupy (0=water, 1=sucrosey, 2=syrupy). Roundtable assessment of bitterness assigned a scale of 0 to 6 with a score of 0 indicating no bitterness and a score of 6 indicating extreme sweetness linger (0=none, 1=trace, 2=slight, 3=moderate, 4=definite, 5=strong, 6=extreme). Roundtable assessment of off tastes assigned a scale of 0 to 6 with a score of 0 indicating no bitterness and a score of 6 indicating extreme off tastes (0=none, 1=trace, 2=slight, 3=moderate, 4=definite, 5=strong, 6=extreme).
A series of assays were carried out to characterize off taste (0=none, 1=trace/faint, 2=slight, 3=moderate, 4=definite, 5=strong, 6=extreme) of steviol glycoside compositions with sensory modifier compound using the roundtable methodology described in Example 1. […] Solutions of steviol glycosides and sensory modifier compound were prepared at increasing ratios of sensory modifier to steviol glycoside by weight. The steviol glycosides were RebA (4 glycoside groups), RebD (5 glycoside groups), RebM (6 glycoside groups), and OPS1-5(7 glycoside groups) and the sensory modifier compound was monocaffeoylquinic and dicaffeoylquinic acids prepared from yerba mate. The concentration of steviol glycosides was 700 ppm in each solution. The solutions were tested for off taste. Off taste included astringency, metallic, powdery, numbing, and vapory attributes.

The mark [3] stands for this setting: steviol glycoside 700 ppm + yerba mate mono/dicaffeoylquinic acids 630 ppm.
The mark [4] stands for this setting: steviol glycoside 700 ppm + yerba mate mono/dicaffeoylquinic acids 946 ppm.
[5] abbreviates: steviol glycoside 700 ppm + yerba mate mono/dicaffeoylquinic acids […].
Where [6] appears, read: steviol glycoside 700 ppm, sensory modifier 0 ppm.
The mark [7] stands for this setting: steviol glycoside 700 ppm + yerba mate mono/dicaffeoylquinic acids 270 ppm.

In the case of `C=C1C[C@@]23CC[C@H]4[C@@](C)(CCC[C@@]4(C)C(=O)O[C@@H]4O[C@H](CO)[C@@H](O)[C@H](O)[C@H]4O)[C@@H]2CC[C@]1(O[C@@H]1O[C@H](CO)[C@@H](O)[C@H](O[C@@H]2O[C@H](CO)[C@@H](O)[C@H](O)[C@H]2O)[C@H]1O[C@@H]1O[C@H](CO)[C@@H](O)[C@H](O)[C@H]1O)C3` [RebA, Rebaudioside A], the SEV in test [1] (setting [3]), in test [1] (setting [4]), in test [1] (setting [5]) and in test [1] (setting [6]) was 7 in each case. In addition, in test [2] (RebA 700 ppm, higher concentrations of sensory modifier), the off taste score amounted to 2. The Off taste in test [2] (setting [3]) was determined as 2; in test [2] (setting [4]), 2; in test [2] (setting [5]), 2; in test [2] (setting [6]), 6.

With `C=C1C[C@@]23CC[C@H]4[C@@](C)(CCC[C@@]4(C)C(=O)O[C@@H]4O[C@H](CO)[C@@H](O)[C@H](O)[C@H]4O[C@@H]4O[C@H](CO)[C@@H](O)[C@H](O)[C@H]4O)[C@@H]2CC[C@]1(O[C@@H]1O[C@H](CO)[C@@H](O)[C@H](O[C@@H]2O[C@H](CO)[C@@H](O)[C@H](O)[C@H]2O)[C@H]1O[C@@H]1O[C@H](CO)[C@@H](O)[C@H](O)[C@H]1O)C3` [RebD, Rebaudioside D], the SEV came out at 8.5 in test [1] (setting [7]), 8.5 in test [1] (steviol glycoside 700 ppm + yerba mate mono/dicaffeoylquinic acids 540 ppm), 8.5 in test [1] (steviol glycoside 700 ppm + yerba mate mono/dicaffeoylquinic acids 810 ppm) and 8 in test [1] (setting [6]). The Off taste in test [2] (setting [7]) and in test [2] (setting [6]) was 2 each time.
